Experimental data: US20240197891A1, “PHARMACEUTICAL COMPOSITIONS COMPRISING POH DERIVATIVES” (UNIVERSITY OF SOUTHERN CALIFORNIA, priority 2021, published 2024)

Experiments:
Format in all cases: in vivo, mouse
UV-B exposed skin = experiment: UV-B induced skin damage in SKH-1 hairless mice; conditions: topical post exposure
Description: (§1) FIG. 23 illustrates the simulation of sunlight by irradiation with UVB lamps (310 nm). The irradiation was conducted in a phototoxicity testing chamber and fitted with a UV-B lamp providing with a spectral output of approximately 310 nm. The source of UVR was a short-wavelength UV lamp (VWR. Radnor, PA). The peak spectral output of this lamp was approximately 310 nm, with no energy detectable below 260 nm, approximately 0.6% between 260 and 280 nm (UV-C), 72.7% between 280 and 320 nm (UV-B), and 26.7% between 320 and 400 nm (UV-A). Radiation dosage of UV-B per irradiation was set at 54 mJ/cm^2 for the first week, 72 mJ/cm^2 for the second week, 90 mJ/cm^2 for the third week, and 108 mJ/cm^2 for the remaining weeks, as confirmed by a UV monitor. Each irradiation event was 10 minutes long.
POH-LA conjugate, linoleic acid, POH, and the additive combination of linoleic acid and POH were each suspended in glycerol:ethanol (90:10 vol/vol) to a final concentration of 10 nM with 50 μL and applied to each SKH-1 hairless mouse post UV-B exposure for treatment. The sunblock mouse was gently wiped on the exposure area with the sunblock towelette. […] In FIG. 23B, the mice were treated with the glycerol:ethanol vehicle only. In FIG. 23C, the mice were treated with POH. In FIG. 23D, the mice were treated with linoleic acid. In FIG. 23E, the mice were treated with an mixture of linoleic acid and POH. In FIG. 23F, the mice were treated with POH-LA conjugate. In FIG. 23G, the mice were treated with sunblock. The application of POH-LA conjugate to UV-B exposed tissue limits the amount of observable skin damage as compared to the untreated control (B) or the individual components of POH-LA conjugate either alone (POH—C and LA—D), in mixture (E), or with sunblock (G).
as §1, with “FIGS. 24A-D illustrates the” for “FIG. 23 illustrates the”, “UV lamp (VWR, Radnor, PA).” for “UV lamp (VWR. Radnor, PA).”, “second week, and 90 mJ/cm^2” for “second week, 90 mJ/cm^2”, “third week, as confirmed” for “third week, and 108 mJ/cm^2 for the remaining weeks, as confirmed”, “UV monitor.” for “UV monitor. Each irradiation event was 10 minutes long.”
POH-LA conjugate (FIG. 24A), linoleic acid (FIG. 24B), POH (FIG. 24C), and the additive combination of linoleic acid and POH (FIG. 24D) were each suspended in glycerol:ethanol (90:10 vol/vol) to a final concentration of 10 nM with 50 μL applied to each mouse post UV-B exposure for treatment. The application of POH-LA conjugate to UV-B exposed tissue limits the amount of observable skin damage as compared the individual components of POH-LA conjugate either alone or in mixture.
as §1, with “This example” for “FIG. 23”, “nm)” for “nm). The irradiation”, “(VWR,” for “(VWR.”, “monitor.” for “monitor. Each irradiation event was 10 minutes long.”
POH-LA conjugate, linoleic acid, POH, and the additive combination of linoleic acid and POH were each suspended in glycerol:ethanol (90:10 vol/vol) to a final concentration of 10 nM with 50 μL applied to each mouse post UV-B exposure for treatment. […]

IL-1β = experiment: Serum IL-1β following UV exposure
Description: (§2) SKH-1 hairless mice were treated with 10 mg/kg POH-LA conjugate freshly prepared daily. The POH-LA conjugate was formulated in glycerol:ethanol (90:10) while the control animals received the glycerol:ethanol vehicle only or the commercially available sunblock (Well & Good Sun Protection Wipes SPF 15). Additional test groups were treated with POH formulated in the glycerol:ethanol vehicle or linoleic acid formulated in the glycerol:ethanol vehicle. 50 μL of each formulation was placed on a area 1 cm^2 area that was exposed to the UV light. The mice were treated with their respective formulations after exposure to the UV light. In FIG. 22A, the mouse was treated with sunblock. In FIG. 22B, the mouse was treated with POH. In FIG. 22C, the mouse was treated with linoleic acid. In FIG. 22D, the mouse was treated with POH-LA conjugate. In FIG. […]:ethanol vehicle only. The POH-LA conjugate, POH or linoleic acid solutions were gently spread on the skin surface and allowed to air dry. The sunblock mouse was gently wiped on the exposure area with the sunblock towelette. This exposure and treatment went on for a maximum of 10 weeks. Throughout the experimental period the animals were photographed and weighed. At the end of the experimental period the mice were photographed and euthanized, followed by skin and blood collection. Blood was analyzed for markers of inflammation and DNA recovered from the exposed area of the skin and analyzed for markers of DNA damage.
(§3) Furthermore, blood samples were taken from each mouse 4 hours after the last cutaneous treatment. About 0.5 mL of blood was collected by cardiac puncture […]. Serum was aliquoted in Eppendorf tubes and store at −80° C. as preparation for cytokine analyses. […]
(§4) Mice were treated with 10 mg/kg POH-LA conjugate freshly prepared daily. […] Blood was analyzed for markers of inflammation and DNA recovered from the exposed area of the skin and analyzed for markers of DNA damage.

TNF-α = experiment: Serum TNF-α following UV exposure
Description: as §2, §3, §4

[1] = 3 weeks of UV-B exposure and treatment
[2] = 5 weeks of UV-B exposure and treatment

| Compound | observable skin damage (UV-B exposed skin; [1]) | observable skin damage (UV-B exposed skin; [2]) | IL-1β serum levels increase (IL-1β) [pg/mL] | TNF-α levels (TNF-α) [pg/mL] |
| --- | --- | --- | --- | --- |
| C=C(C)[C@@H]1CC=C(CO)CC1 [POH, perillyl alcohol] | displayed damage | displayed damage | 8.5 ± 3.0 | 103.2 ± 18.0 |
| C=C(C)[C@@H]1CC=C(COC(=O)CCCCCCC/C=C\C/C=C\CCCCC)CC1 [POH-LA conjugate, Octadeca-9,12-dienoic acid 4-isopropenyl-cyclohex-1-enylmethyl ester] | displayed no damage | appeared the same as the unexposed control mice skin | 6.4 ± 2.5 | 72.6 ± 22.8 |
